Counter-ions that a name gives are not always drawn.
How the values were obtained:
[1] = tested on: Dextran-induced edema formation in the ears of mice; assay: Inhibition of Dextran-induced edema formation in the ears of mice; type: in vivo, male Swiss mice; details: Column B, at 10 mg/kg body weight, 1 h before dextran; for inhibition in vivo at 10 mg/kg: Mus musculus, po, read-out: inhibition of Dextran-induced blueing of the ears of mice, % inhibition
Source text: Inhibition of Dextran-induced edema formation in the ears of mice.
Intravenous injection of Dextran T500® (Pharmacia) and pontamine sky-blue dye into mice results in increased vascular permeability and edema formation, characterized by an intense blueing of the ears. Determination of the amount of extravasated dye is presumed to yield a quantitative measure of the 5-lipoxygenase inhibiting activity of the test compounds (Drug. Dev. Res. 8, 213-218, 1986). Unfasted male Swiss mice weighing 24-26 g were used in the experiments which were performed between 13.00 pm and 17.00 pm at an ambient temperature of 22±1° C. The mice were treated orally with a test compound of formula (I) dissolved in a volume of […] of either polyethyleneglycol (PEG 200) or hydroxypropyl cyclodextrine at doses varying between 1.25 and 40 mg per kg bodyweight. In control experiments the mice were administered an identical amount of solvent alone. One hour after treatment there was injected intravenously an isotonic saline solution containing 60 mg/ml Dextran T500® and 13 mg/ml pontamine sky-blue dye in a volume of 0.1 ml per 10 g bodyweight. One hour and forty-five minutes later the animals were sacrificed by ether and their ears were removed. Extraction and quantification of the extravasated dye were performed as described (Drug Dev. Res. 8, 213-218, 1986). The calculated percentage of inhibition of ear blueing upon administration of a compound of formula (I) at a dose of 10 mg/kg bodyweight is shown in the second column of table 12.

5-lipoxygenase = target: T1, 5-lipoxygenase (Rattus norvegicus, UniProt P12527); assay: Arachidonate 5-lipoxygenase inhibition in Rat Basophilic Leukemia Cells Supernatant; type: biochemical; design: dose or concentration left out as unconfirmed; details: Column A; 5-HPETE and LTB4 formation; read-out: 5-lipoxygenase inhibition in RBL cells supernatant, % inhibition
T1 construct: The supernatant, aliquoted and stored at -70° C., was used as the source of 5-lipoxygenase activity; endogenous in cells; host or cells: Rat basophilic leukemia (RBL) cells, 10,000×g supernatant of the sonicate (crude, not purified)
T1 sequence (P12527 1-673): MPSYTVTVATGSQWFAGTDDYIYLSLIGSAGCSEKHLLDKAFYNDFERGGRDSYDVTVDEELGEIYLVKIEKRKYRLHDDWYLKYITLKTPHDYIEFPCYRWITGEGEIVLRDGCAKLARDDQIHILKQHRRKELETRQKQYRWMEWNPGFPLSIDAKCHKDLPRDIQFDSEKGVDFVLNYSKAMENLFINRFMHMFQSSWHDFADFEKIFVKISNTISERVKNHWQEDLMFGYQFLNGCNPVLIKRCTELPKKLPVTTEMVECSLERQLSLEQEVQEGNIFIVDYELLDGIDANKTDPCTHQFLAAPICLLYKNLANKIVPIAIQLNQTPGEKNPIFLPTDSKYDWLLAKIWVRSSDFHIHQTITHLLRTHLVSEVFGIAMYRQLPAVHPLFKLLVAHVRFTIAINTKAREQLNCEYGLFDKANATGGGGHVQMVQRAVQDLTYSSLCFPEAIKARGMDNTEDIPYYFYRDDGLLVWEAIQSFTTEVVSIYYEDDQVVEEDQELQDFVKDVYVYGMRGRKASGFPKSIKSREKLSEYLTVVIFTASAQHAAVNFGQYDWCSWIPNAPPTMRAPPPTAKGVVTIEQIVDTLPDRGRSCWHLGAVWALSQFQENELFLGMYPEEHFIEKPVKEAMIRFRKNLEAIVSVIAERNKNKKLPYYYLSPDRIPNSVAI

With `CCCCN1C(=O)N(c2ccc(N3CCN(c4ccc(O)cc4)CC3)cc2)C(=O)C1C` (centres unmarked) [Compound 5.03] as the compound, how does the inhibition in vivo at 10 mg/kg [1] read?
Its inhibition in vivo at 10 mg/kg is 72%.

And the inhibition (5-lipoxygenase)?
Its inhibition is 79%.

How did the inhibition in vivo at 10 mg/kg [1] turn out when `CCCn1c(=O)n(CCC)c(=O)n(-c2ccc(N3CCN(c4ccc(O)cc4)CC3)cc2)c1=O` [Compound 9.03] was run?
Its inhibition in vivo at 10 mg/kg is 94%.

And the inhibition (5-lipoxygenase)?
Its inhibition is 58%.

Which results are given for `O=C1CCCCC1n1ncn(-c2ccc(N3CCN(c4ccc(O)cc4)CC3)cc2)c1=O` (centres unmarked) [Compound 7.18]?
inhibition in vivo at 10 mg/kg [1]: 87%; inhibition (5-lipoxygenase): 67%

`Cn1c(=O)n(C)c(=O)n(-c2ccc(N3CCN(c4ccc(O)cc4)CC3)cc2)c1=O` [Compound 9.05] was tested. Which inhibition in vivo at 10 mg/kg [1] did it give?
Its inhibition in vivo at 10 mg/kg is 83%.

Which inhibition (5-lipoxygenase) does the source give for `O=[N+]([O-])c1cc(F)ccc1N1CCN(c2ccc(O)cc2)CC1` [Compound 1.16, 4-[4-(4-fluoro-2-nitrophenyl)-1-piperazinyl]phenol monohydrochloride] here?
The inhibition was 94%.

What does the source list for `CN1C(=S)N(c2ccc(N3CCN(c4ccc(O)cc4)CC3)cc2)C(=O)C1(C)C` [Compound 5.12]?
inhibition in vivo at 10 mg/kg [1]: 88%; inhibition (5-lipoxygenase): 81%

Which inhibition in vivo at 10 mg/kg [1] does the source give for `CCC(C)n1nc(C)n(-c2ccc(N3CCN(c4cc(C)c(O)c(C)c4)CC3)cc2)c1=O` (centres unmarked) [Compound 7.50, 2,4-dihydro-4-[4-[4-(4-hydroxy-3,5-dimethylphenyl)-1-piperazinyl]phenyl]-5-methyl-2-(1-methylpropyl)-3H-1,2,4-triazol-3-one] here?
Its inhibition in vivo at 10 mg/kg is 88%.

And the inhibition (5-lipoxygenase)?
Its inhibition is 52%.

How did the inhibition in vivo at 10 mg/kg [1] turn out when `CCN(C1=NC(C(C)C)CS1)c1ccc(N2CCN(c3ccc(O)cc3)CC2)cc1` (centres unmarked) [Compound 3.14] was run?
Its inhibition in vivo at 10 mg/kg is 74%.

What does the source list for `CCC(C)n1nc(C)n(-c2ccc(N3CCN(c4ccc(O)cc4)CC3)cc2)c1=O` (centres unmarked) [Compound 7.33, 2,4-dihydro-4-[4-[4-(4-hydroxyphenyl)-1-piperazinyl]phenyl]-5-methyl-2-(1-methylpropyl)-3H-1,2,4-triazol-3-one]?
inhibition in vivo at 10 mg/kg [1]: 87%; inhibition (5-lipoxygenase): 80%

How did the inhibition in vivo at 10 mg/kg [1] turn out when `CC(C(=O)c1ccc(Cl)cc1)n1ncn(-c2ccc(N3CCN(c4ccc(O)cc4)CC3)cc2)c1=O` (centres unmarked) [Compound 7.15] was run?
Its inhibition in vivo at 10 mg/kg is 97%.

And the inhibition (5-lipoxygenase)?
The inhibition was 51%.

With `CCC(C)n1ncn(-c2ccc(N3CCN(c4ccc(O)cc4)CC3)cc2)c1=O` (centres unmarked) [Compound 7.06] as the compound, how does the inhibition (5-lipoxygenase) read?
The inhibition was 97%.

For `CCC(C(O)c1ccccc1)n1ncn(-c2ccc(N3CCN(c4ccc(O)cc4)CC3)cc2)c1=O` (centres unmarked) [Compound 7.69], which inhibition in vivo at 10 mg/kg [1] is on record?
Its inhibition in vivo at 10 mg/kg is 85%.

For `CCN1CCN(c2ccc(N3CCN(c4ccc(O)cc4)CC3)cc2)C1=O` [Compound 4.02], which inhibition (5-lipoxygenase) is on record?
The inhibition was 84%.

For `Cc1nn(C(C)C(O)c2ccc(Br)cc2)c(=O)n1-c1ccc(N2CCN(c3ccc(O)cc3)CC2)cc1` (centres unmarked) [Compound 7.70, 2-[2-(4-bromophenyl)-2-hydroxy-1-methylethyl]-2,4-dihydro-4-[4-[4-(4-hydroxyphenyl)-1-piperazinyl]phenyl]-5-methyl-3H-1,2,4-triazol-3-one], which inhibition in vivo at 10 mg/kg [1] is on record?
The inhibition in vivo at 10 mg/kg was 85%.

How did the inhibition in vivo at 10 mg/kg [1] turn out when `CCC(C(=O)c1ccc(Cl)cc1)n1ncn(-c2ccc(N3CCN(c4ccc(O)cc4)CC3)cc2)c1=O` (centres unmarked) [Compound 7.41] was run?
The inhibition in vivo at 10 mg/kg was 82%.

For `CCCn1c(=O)n(-c2ccc(N3CCN(c4ccc(O)cc4)CC3)cc2)c(=O)n(C(C)C(=O)c2ccc(Br)cc2)c1=O` (centres unmarked) [Compound 9.07], which inhibition in vivo at 10 mg/kg [1] is on record?
The inhibition in vivo at 10 mg/kg was 83%.

`CC(C(O)c1ccc(Br)cc1)n1ncn(-c2ccc(N3CCN(c4ccc(O)cc4)CC3)cc2)c1=O` (centres unmarked) [Compound 7.68] was tested. Which “inhibition of Dextran-induced blueing of the ears of mice, % inhibition” value ([1]; oral, 10 mg/kg) did it give?
The value was 81%.

`CCCn1cnn(-c2ccc(N3CCN(c4ccc(O)cc4)CC3)cc2)c1=O` [Compound 8.05] was tested. Which inhibition (5-lipoxygenase) did it give?
The inhibition was 90%.

`CCCCn1c(=O)cnn(-c2ccc(N3CCN(c4ccc(O)cc4)CC3)cc2)c1=O` [Compound 10.05, 4-butyl-2-[4-[4-(4-hydroxyphenyl)-1-piperazinyl]phenyl]-1,2,4-triazine-3,5(2H,4H)-dione] was tested. Which inhibition (5-lipoxygenase) did it give?
The inhibition was 80%.

Which inhibition (5-lipoxygenase) does the source give for `CC(C)N1C(=O)N(c2ccc(N3CCN(c4ccc(O)cc4)CC3)cc2)C(C)(C)C1=O` [Compound 6.09] here?
The inhibition was 84%.

With `CCCCN1C(=O)N(c2ccc(N3CCN(c4ccc(O)cc4)CC3)cc2)CC1(C)C` [Compound 4.13] as the compound, how does the inhibition (5-lipoxygenase) read?
The inhibition was 95%.

For `CCC(C)n1ncn(-c2ccc(N3CCN(c4ccc(O)cc4)CC3)c(Br)c2)c1=O` (centres unmarked) [Compound 7.21], which inhibition (5-lipoxygenase) is on record?
The inhibition was 97%.

— patent publication US4931444A, “5-lipoxygenase inhibiting 4-(4-phenyl-1-piperazinyl)phenols” (Janssen Pharmaceutica N.V., priority 1989, dated 1990)
